Here are results for one substance from patent US10683272B2 (THE JOHNS HOPKINS UNIVERSITY, priority 2014, dated 2020).

As usually defined, the Ki is the dissociation constant of the complex between target and ligand, obtained from inhibition or displacement. A high value points to a looser hold on the target. Usually cell viability stands for a per cent measure of how many cells are alive, often set against a control. Low readings indicate more harm to the cells, high ones less harm to the cells.

Data set [1] deals with PSMA+ PC3 PIP and PSMA− PC3 flu cells. The data set is described as follows: T1-weighted MR imaging of cell pellets. The class given is cell-based, human. Particulars: PSMA+ PC3 PIP vs PSMA− PC3 flu cell pellets. On the procedure: FIG. 4A through FIG. 4C show T1 contrast enhancement generated by Gd3 in an isogenic human PC3 prostate cancer cell pair, PSMA+ PIP and PSMA− flu cells; (A) Color coded T1 maps of PIP and flu cells. Relaxation rates were determined at 25° C. at 9.4 T; (B) Quantification of T1 changes (ΔT1) in PIP and flu cells (n=4, P<0.05) following treatment with Gd3; (C) cellular uptake of Gd3 in PIP and flu cells.
(§1) When imaged at 9.4 T and 25° C., solution phantoms indicated r1 relaxivities in PBS that vary between 3.0 and 6.2 mM^−1 s^−1 per Gd(III) and between 3.0 and 12.5 mM-1 s-1 per contrast agent (Table 1). As expected, Gd1 has the lowest relaxivity followed by Gd2 and Gd3 at 25° C. To determine selectivity and specificity of the agents, human prostate cancer cells genetically modified to express high amounts of PSMA (PC3 PIP) and the corresponding wild-type, PSMA-non-expressing cells (PC3 flu) were selected as negative control (Banerjee, Angew., 2001). […] Enhancement and T1 measurements by means of MRI of the cell pellets in the presence and absence of 50 μM Gd3 indicated higher enhancement and difference in T1 relaxation rates, ΔR1 between Gd3 treated PIP cells and the control PIP cells as compared to the Gd3-treated flu cells and the control flu control cells, after removal of the Gd3 from the cell system by washing with standard medium (FIG. 4B and FIG. 4C).

The target in data set [2] is PSMA (Homo sapiens, UniProt Q04609). The data set is described as follows: fluorescence-based PSMA inhibition assay (Example 1). The data set is classed as biochemical.
Chain of PSMA (Q04609 whole entry): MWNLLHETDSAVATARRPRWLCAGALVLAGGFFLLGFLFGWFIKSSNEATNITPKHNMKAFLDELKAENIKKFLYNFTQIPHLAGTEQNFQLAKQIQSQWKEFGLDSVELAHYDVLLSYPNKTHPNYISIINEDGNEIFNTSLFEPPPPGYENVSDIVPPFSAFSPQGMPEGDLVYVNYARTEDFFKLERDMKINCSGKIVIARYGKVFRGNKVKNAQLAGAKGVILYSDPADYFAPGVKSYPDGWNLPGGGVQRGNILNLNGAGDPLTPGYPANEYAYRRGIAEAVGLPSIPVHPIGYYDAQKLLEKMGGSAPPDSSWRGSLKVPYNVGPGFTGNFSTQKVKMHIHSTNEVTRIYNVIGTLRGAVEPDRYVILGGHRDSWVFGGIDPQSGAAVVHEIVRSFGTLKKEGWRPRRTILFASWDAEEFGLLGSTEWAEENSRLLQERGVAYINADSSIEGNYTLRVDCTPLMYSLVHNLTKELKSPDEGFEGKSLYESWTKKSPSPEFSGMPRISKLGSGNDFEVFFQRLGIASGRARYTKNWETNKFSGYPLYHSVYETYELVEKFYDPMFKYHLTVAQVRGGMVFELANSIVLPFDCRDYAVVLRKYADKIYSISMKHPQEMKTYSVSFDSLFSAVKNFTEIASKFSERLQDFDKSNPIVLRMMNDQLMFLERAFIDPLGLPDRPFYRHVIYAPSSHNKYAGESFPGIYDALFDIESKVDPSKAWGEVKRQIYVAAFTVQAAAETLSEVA
Data set [3] has as its system PSMA+ PC3 PIP cells. The data set is described as follows: cell viability, MTS assay. The class given is cell-based, human. Particulars: 24 h. On the technique in general: Tetrazolium dyes change colour on reduction, which living cells bring about.
Data set [4] relates to PSMA+ PC3 PIP cells. The data set is described as follows: cell internalization assay (ICP-MS). Particulars: for percent of incubated dose internalized: PSMA+ PC3 PIP cells. The data set is classed as cell-based, human. On the procedure:
FIG. 6A and FIG. 6B show the % ID of Gd3 cell surface bound (A) and internalized (B) at 1, 4 and 24 h;
Moreover, slightly higher non-specific uptake was associated with Gd2 in PSMA− PC3 flu cells, which might be related to the lower K1 value of this agent compared to Gd1. As a further check on cellular uptake and internalization, a dual modality Gd monomeric contrast agent labeled with Rhodamine-Red™-X was prepared to confirm the PSMA-mediated internalization of this class of contrast agents (FIG. 5D).
A time-dependent internalization study was performed for Gd3 (FIG. 6A and FIG. 6B) after 1, 4 and 24 h of incubation. […] A similar amount of Gd (˜33-37% ID) was associated with the cell membrane at those same time-points.

Data set [5] deals with PSMA+ PC3 PIP cells. Put plainly: ICP-MS analysis of Gd in cell pellets. The data set is classed as cell-based, human. From the text:
Thus, the difference between ΔR1 of the PIP cells and that of the flu cells reflects the change due to the specific Gd3 binding to PSMA in the PIP cells.

Data set [6] is described as follows: r1 relaxivity of solution phantoms at 9.4 T and 25° C. The class given is physicochemical. On the procedure: as §1
Data set [7] has as its system PSMA+ PC3 PIP and PSMA− PC3 flu tumor xenografts. The class given is in vivo.
The subject of data set [8] is PSMA− PC3 flu cells. Put plainly: cell viability, MTS assay. The class given is cell-based, human. The following applies: 24 h, up to Gd(III) concentration of 1 mM. On the procedure:
Prior to evaluating Gd3 for live mouse imaging, its biocompatibility was examined using a cell proliferation assay. Various concentrations of Gd3 were incubated with PSMA+PC3 PIP and PSMA− PC3 flu cells, for 24 h. […] However, Gd(III) concentrations of >1 mM affected PSMA+PC3 PIP cell viability (FIG. 8). The observed level of PSMA+PC3 PIP cell death may be attributable to high cell internalization of Gd3, and the long incubation time employed (24 h).

The mark [9] stands for this setting: 0.05 mmol/Kg i.v., first 20 min after injection.

Like-named read-outs stand apart in the source and are kept apart here.

As to “(3S,7S)-5,13,20,28-tetraoxo-32-(2,4,6-tris(1-(2-hydroxy-3-(4,7,10-tris(carboxymethyl)-1,4,7,10-tetraazacyclododecan-1-yl)propyl)-1H-1,2,3-triazol-4-yl)phenoxy)-4,6,12,21,27-pentaazadotriacontane-1,3,7,22-tetracarboxylic acid, trigadolinium(III) salt [Gd3]”, in data set [1], the “T1-weighted MR contrast of cell pellets” value is “significant MR contrast enhancement in PSMA+PC3 PIP cells”. For the same substance, the Ki in data set [2] was determined as 7.19 nM. In addition, the “Gd(III) concentrations that affected cell viability” value in data set [3] is reported as over 1 mM. In addition, the “amount of Gd associated with the cell membrane” value in data set [4] (PSMA+ PC3 PIP cells, 1, 4 and 24 h) is 33-37 % ID. In addition, the “percent of incubated dose internalized” value is recorded as 28.30±0.47 % ID in data set [4] (1 h incubation), 39.92±3.59 % ID in data set [4] (4 h incubation) and about 89.69±3.90 % ID in data set [4] (24 h incubation). The “estimated intracellular Gd(III) concentration” value in data set [5] is about 22.82 µM. The “r1 relaxivity, ionic (per Gd(III))” value in data set [6] (9.4 T, 25° C., PBS) worked out at 3.3 mM⁻¹ s⁻¹. Further, the “r1 relaxivity, molecular (per contrast agent)” value in data set [6] (9.4 T, 25° C., PBS) is 9.81 mM⁻¹ s⁻¹. The r1 relaxivity in data set [6] (column T1 of Table 1) was determined as 12.47 mM⁻¹ s⁻¹. Moreover, the “contrast enhancement at PIP tumor” value in data set [7] (0.05 mmol/Kg i.v., 40 min post-injection) is recorded as 36%; in data set [7] (0.05 mmol/Kg i.v., until 1.5 h post injection), 30%. Besides, in data set [7] (setting [9]), the “lowering of T1 value, PIP tumor” value stood at 0.57 s. Further, the “lowering of T1 value, PSMA flu tumor” value in data set [7] (setting [9]) amounted to 0.63 s. Further, the “lowering of T1 value, muscle” value in data set [7] (setting [9]) amounted to 0.261 s. The “highest contrast enhancement, PSMA− PC3 flu tumors” value in data set [7] (0.06 mmol/kg i.v., 20 min post-injection) is reported as about 24%. The “enhancement in R1, PSMA+ PC3 PIP tumor” value is given as 24% in data set [7] (0.06 mmol/kg i.v., 190 min after injection) and 29% in data set [7] (0.06 mmol/kg i.v., until 90 min). For the same substance, the “ΔR1, PSMA− PC3 flu tumors” value in data set [7] (0.06 mmol/kg i.v., after 40 min) is reported as under 20%. Further, in data set [7] (0.06 mmol/kg i.v., first 40 to 60 min), the “average enhancement in R1 values, PSMA+ PC3 PIP tumor” value came to 36%. The “minimum T1 value of PSMA+ PC3 PIP tumor” value in data set [7] (0.06 mmol/kg i.v., first 40 to 60 min, n=4) is on record as 1,819±76 ms. Further, in data set [8], the cell viability is about 90%.
